{"source": "paper PMC6497555", "about": "(Molecular cancer therapeutics, 2019)", "system": "HeyA8 tumor model", "test": "HeyA8 intraperitoneal ovarian cancer mouse model", "format": "in vivo", "conditions": "all four groups compared; EP-100 0.2 mg/kg, olaparib 50 mg/kg"}
{"smiles": "O=C(c1cc(Cc2n[nH]c(=O)c3ccccc23)ccc1F)N1CCN(C(=O)C2CC2)CC1", "note": "[olaparib]", "values": [{"measurement": "Body weights of the host mice at the end of the experiment", "value": "did not differ significantly"}]}
